These results are taken from ChEMBL document CHEMBL5104145, “Synthesis of antiplasmodial 2-aminothieno[3,2-d]pyrimidin-4(3H)-one analogues using the scaffold hopping strategy” (Eur J Med Chem, 2022).

Series [1] in a line: Permeability of compound at 100 uM at pH 5 incubated for 4 hrs by PAMPA-GIT assay. Type of series: ADME. The following applies: read-out: permeability.
A short description of series [2]: Permeability of compound at 100 uM at pH 6 incubated for 4 hrs by PAMPA-GIT assay. The format is ADME. The following applies: read-out: permeability.
A short description of series [3]: Permeability of compound at 100 uM at pH 7.4 incubated for 4 hrs by PAMPA-GIT assay. The format is ADME. The following applies: read-out: permeability. For orientation: In PAMPA a lipid-coated filter parts donor from acceptor wells.
Series [4] can be described thus: Thermodynamic solubility of compound at pH 7.4 incubated for 24 hrs by shake-flask method. Type of series: physicochemical. The following applies: buffer, read-out: Therm_solubility.
Series [5] concerns Plasmodium falciparum. The series is described as follows: Antiplasmodial activity against Plasmodium falciparum K1 assessed as reduction in parasite growth. Type of series: functional, organism-based.
In series [6] the test system is Plasmodium falciparum. The series is described as follows: Antiplasmodial activity against chloroquine,pyrimethamine and proguanil resistant blood stage Plasmodium falciparum K1 assessed as reduction in parasite growth incubated for 72 hrs by SYBR Green I fluorescence-based method. The format is functional, organism-based.
A short description of series [7]: (§1) Cytotoxicity against human HepG2 cells assessed as reduction in cell viability incubated for 72 hrs by MTT assay. Type of series: toxicity, cell-based. The following applies: HepG2 cells. Background: Formazan colour is commonly taken as a measure of viable cells.
Series [8] in a line: Selectivity index, ratio of CC50 for cytotoxicity against human HepG2 cells to EC50 for antiplasmodial activity against chloroquine,pyrimethamine and proguanil resistant blood stage Plasmodium falciparum K1. Type of series: toxicity, cell-based. The following applies: for selectivity ratio: HepG2 cells, read-out: Ratio CC50/EC50.
The nature of series [9]: Solubility of compound in culture media. The format is physicochemical.
Series [10] relates to HepG2. The series is described as §1. Type of series: toxicity, cell-based. The following applies: hepg2, 72 h, 72 h.
The mark [11] stands for this setting: Plasmodium falciparum, K1, 72 h.

≈ marks a conversion by molar mass, not a printed value.

A word on the EC50: it is the concentration at which the effect is half-maximal. By CC50 is commonly meant the concentration giving 50% cytotoxicity.

`Cc1ccc(-c2cc3nc(NC(C)(C)C)[nH]c(=O)c3s2)cc1`: the values for the Papp at 4 h, 100 µM in [1], in series [2] and in series [3] were 4.18 ×10⁻⁶ cm/s, 1.86 ×10⁻⁶ cm/s and 2.05 ×10⁻⁶ cm/s, respectively. Besides, in [4], the solubility thermodynamic at 24 h amounted to 1.56 µM (≈ 0.489 µg/mL).

Consider `Cc1ccc(-c2ccc3nc(NC(C)(C)C)[nH]c(=O)c3c2)cc1`, for which, in series [5], the EC50 was greater than 5 µM.

Turning to `Cc1ccc(-c2ccc3c(=O)[nH]c(NC(C)(C)C)nc3c2)cc1`, the EC50 in [5] is greater than 5 µM.

Regarding `Cc1ccc(-c2cc3nc(NC(C)(C)C)[nH]c(=O)c3s2)cc1.Cl`, the Papp at 4 h, 100 µM in [3] stood at 0.46 ×10⁻⁶ cm/s. Besides, the solubility thermodynamic at 24 h in series [4] came out at 7.92 µM.

On to `Cc1ccc(-c2cc3nc(NC(C)(C)C)[nH]c(=O)c3o2)cc1`, for which the EC50 in [6] worked out at 800 nM. Also, the CC50 at 72 h in series [7] came to 10.9 µM. Further, the “Ratio CC50/EC50” value in [8] was determined as 13.6.

Turning to `CC(C)(C)Nc1nc2cc(-c3ccc(F)cc3)oc2c(=O)[nH]1`, the EC50 in series [6] (setting [11]) stood at 2900 nM. Also, the CC50 at 72 h in [7] is greater than 3.12 µM. Besides, the selectivity ratio in series [8] is greater than 1.1. Also, in series [9], the solubility entry was “Insoluble”.

On to `CC(C)(C)Nc1nc2sc(-c3ccccc3)cc2c(=O)[nH]1`, for which the EC50 in series [6] (setting [11]) came to 33800 nM. Further, the CC50 at 72 h in series [7] was greater than 12.5 µM. In addition, the selectivity ratio in series [8] is greater than 0.4.

Consider `Cc1ccc(-c2cc3nc(NC(C)C)[nH]c(=O)c3o2)cc1`, for which the EC50 in series [6] (setting [11]) was found to be 90 nM. Moreover, in series [7], the CC50 at 72 h turned out to be 20.4 µM. Moreover, the selectivity ratio in [8] stood at 227. Besides, the figures for the Papp at 4 h, 100 µM in [1], in series [2] and in series [3] were 41.1 ×10⁻⁶ cm/s, 64.3 ×10⁻⁶ cm/s and 76.9 ×10⁻⁶ cm/s, respectively. Further, the solubility thermodynamic at 24 h in series [4] was determined as 11.5 µM (≈ 3.26 µg/mL).

Consider `Cc1ccc(-c2cc3nc(NC(C)C)[nH]c(=O)c3[se]2)cc1`, for which, in series [6] (setting [11]), the EC50 is 800 nM. Further, the CC50 in series [10] is greater than 25 µM. Moreover, the “Ratio CC50/EC50” value in [8] is on record as greater than 31.3.

For `Cc1ccc(-c2nc3nc(NC(C)(C)C)[nH]c(=O)c3s2)cc1`, the EC50 in [6] (setting [11]) is 4600 nM. For the same compound, in [7], the CC50 at 72 h was greater than 5 µM. In addition, in series [8], the selectivity ratio was greater than 1.1.

In the case of `Cc1ccc(-c2cc3nc(NC(C)(C)C)[nH]c(=O)c3[se]2)cc1`, the EC50 in series [6] stood at 1300 nM. For the same compound, in [10], the CC50 is greater than 7.8 µM. The “Ratio CC50/EC50” value in series [8] was greater than 6.

For the compound `Cc1ccc(-c2cc3nc(NC(C)(C)C)[nH]c(=O)c3[se]2)cc1.Cl`, the EC50 in series [6] worked out at 130 nM. Moreover, the CC50 in series [10] was greater than 3.12 µM. The “Ratio CC50/EC50” value in series [8] is recorded as greater than 24.

Turning to `Cc1c(-c2ccc(F)cc2)sc2c(=O)[nH]c(NC(C)C)nc12`, the EC50 in series [6] (setting [11]) worked out at 4300 nM. Further, the CC50 at 72 h in [7] came out at 19.7 µM. In addition, the selectivity ratio in series [8] was 4.6.

Regarding `CC(C)(C)Nc1nc2sc(-c3ccc(Cl)cc3)cc2c(=O)[nH]1`, the EC50 in series [6] (setting [11]) is greater than 50000 nM. For the same compound, the CC50 at 72 h in series [7] was found to be 21.4 µM. The selectivity ratio in [8] is less than 0.4.

Take `CC(C)(C)Nc1nc2nc(-c3ccc(Cl)cc3)sc2c(=O)[nH]1`: the solubility entry in [9] is recorded as “Insoluble”.

As to `Cc1ccc(-c2cc3nc(NC(C)(C)C)[nH]c(=O)c3o2)cc1.Cl`, in series [6], the EC50 is 300 nM. In series [10], the CC50 was found to be 21.7 µM. The “Ratio CC50/EC50” value in [8] was 72.3.

Consider `CC(C)(C)Nc1nc2cc(-c3ccc(Cl)cc3)oc2c(=O)[nH]1`, for which, in [6] (setting [11]), the EC50 was found to be 400 nM. The CC50 at 72 h in series [7] is greater than 6.25 µM. The selectivity ratio in [8] was greater than 15.6. Besides, in [9], the solubility entry was “Insoluble”.

Take `Cc1ccc(-c2cc3nc(NC(C)C)[nH]c(=O)c3[se]2)cc1.Cl`: the EC50 in series [6] came to 770 nM. For the same compound, in [10], the CC50 was greater than 10 µM. Besides, the “Ratio CC50/EC50” value in series [8] is greater than 13.

As for `CC(C)(C)Nc1nc2nc(-c3ccc(F)cc3)sc2c(=O)[nH]1`, the solubility entry in series [9] is listed as “Insoluble”.

As for `CC(C)(C)Nc1nc2sc(-c3ccc(F)cc3)cc2c(=O)[nH]1`, in series [6] (setting [11]), the EC50 is greater than 12500 nM. Besides, in series [7], the CC50 at 72 h was greater than 25 µM.

Regarding `Cc1ccc(-c2cc3c(=O)[nH]c(NC(C)(C)C)nc3s2)cc1`, the EC50 in [6] (setting [11]) worked out at 32400 nM. Also, the CC50 at 72 h in [7] is 20.5 µM. Further, the selectivity ratio in [8] stood at 0.6.

In the case of `CC(C)(C)Nc1nc2nc(-c3ccccc3)sc2c(=O)[nH]1`, in series [6] (setting [11]), the EC50 was greater than 12500 nM. In [7], the CC50 at 72 h is greater than 25 µM.

Consider `CCOC(=O)c1[nH]c(-c2ccc(C)cc2)c2c(=O)[nH]c(NC(C)(C)C)nc12`, for which, in series [6] (setting [11]), the EC50 was determined as 17100 nM. Also, in series [7], the CC50 at 72 h came to 7.4 µM. Besides, in series [8], the selectivity ratio came to 0.4.

On to `Cc1c(-c2ccc(Cl)cc2)sc2c(=O)[nH]c(NC(C)C)nc12`, for which, in series [6] (setting [11]), the EC50 was found to be 4400 nM. Besides, in series [7], the CC50 at 72 h was greater than 25 µM. The selectivity ratio in series [8] was greater than 5.7.
